Experimental data from ChEMBL document CHEMBL1150872, “Four new bioactive lobane diterpenes of the soft coral Lobophytum pauciflorum from Mindoro, Philippines” (J Nat Prod, 1998).
In brackets after ≈: the same amount, converted by molar mass. Activity calls are given as the source filed them. The calls are words filed in the database; no cut-off is given here.

Experiments:
Cladosporium cucumerinum [1] = assay: Antifungal activity against Cladosporium cucumerinum at 0.1 umol after 2 days; assay type: functional
[2] = Toxicity in Artemia salina after 48 hrs; assay type: organism-based; settings: in vivo
Cladosporium cucumerinum [3] = assay: Antifungal activity against Cladosporium cucumerinum at 0.8 umol after 2 days; assay type: functional
Cladosporium cucumerinum [4] = assay: Antifungal activity against Cladosporium cucumerinum at 0.2 umol after 2 days; assay type: functional
Cladosporium cucumerinum [5] = assay: Antifungal activity against Cladosporium cucumerinum at 0.4 umol after 2 days; assay type: functional
Saccharomyces cerevisiae = assay: Antifungal activity against Saccharomyces cerevisiae after 2 days; assay type: functional
Escherichia coli = assay: Antibacterial activity against Escherichia coli ATCC 25922 after 24 hrs by agar diffusion assay; assay type: functional, organism-based
Staphylococcus aureus = assay: Antibacterial activity against Staphylococcus aureus […] after 24 hrs by agar diffusion assay; assay type: functional, organism-based
Bacillus subtilis = assay: Antibacterial activity against Bacillus subtilis 168 after 24 hrs by agar diffusion assay; assay type: functional, subsp. subtilis str. 168

SMILES	inhibition zone (IZ) (Cladosporium cucumerinum [1]) [mm]	LC50 at 48 h [2] [µg/mL]	inhibition zone (IZ) (Cladosporium cucumerinum [3]) [mm]	inhibition zone (IZ) (Cladosporium cucumerinum [4]) [mm]	inhibition zone (IZ) (Cladosporium cucumerinum [5]) [mm]	inhibition zone (IZ) (Saccharomyces cerevisiae) [mm]	Activity (Escherichia coli)	Activity (Staphylococcus aureus)	inhibition zone (IZ) (Bacillus subtilis) [mm]
C=C[C@@]1(C)CC[C@H](/C(C)=C/C=C/C(C)(C)O)C[C@@H]1C(=C)C [FUSCOL]	0	4.18 (≈ 14.5 µM)	2	0	0	–	–	–	–
COC1=C(C)C(=O)c2cc(=O)n(C)c(C)c2C1=O [MIMOSAMYCIN]	–	–	–	15	18	–	–	–	–
C=C[C@@]1(C)CC[C@H](/C(=C/C[C@@H](O)C(C)(C)O)COC(C)=O)C[C@@H]1C(=C)C	5	59 (≈ 162 µM)	30	10	20	–	–	–	–
C=C[C@@]1(C)CC[C@H](/C(=C/C[C@@H](OC(C)=O)C(C)(C)O)COC(C)=O)C[C@@H]1C(=C)C	5	60.4 (≈ 149 µM)	15	10	13	–	–	–	–
C=C[C@@]1(C)CC[C@H](C2=CCC(O)C(C)(C)OC2)C[C@@H]1C(=C)C (stereo partly drawn)	5	–	17	10	14	–	–	–	–
C=C[C@@]1(C)CC[C@H](C2=CC[C@H](C(C)(C)OC(C)=O)OC2)C[C@@H]1C(=C)C	6	34 (≈ 98 µM)	–	8	10	–	–	–	–
C=C[C@@]1(C)CC[C@H](/C(C)=C/C[C@@H](OC(C)=O)C(C)(C)O)C[C@@H]1C(=C)C	2	19.1 (≈ 54.8 µM)	13	5	9	–	–	–	–
C=C[C@@]1(C)CC[C@H](C2=CC[C@H](C(C)(C)O)OC2)C[C@@H]1C(=C)C [LOBATRIENE]	5	19.8 (≈ 65 µM)	15	10	14	7	inactive	inactive	8
C=C[C@@]1(C)CC[C@H](/C(C)=C/C[C@H]2OC2(C)C)C[C@@H]1C(=C)C	0	0.64 (≈ 2.22 µM)	5	0	0	–	–	–	–
C=C[C@@]1(C)CC[C@H](C2=CC[C@H](C(C)(C)O)OC2=O)C[C@@H]1C(=C)C [LOBATRIENOLIDE]	6	–	15	9	13	–	–	–	–
C=C[C@@]1(C)CC[C@H](/C(C)=C/C[C@@H](O)C(C)(C)O)C[C@@H]1C(=C)C	6	10.5 (≈ 34.3 µM)	17	9	14	–	–	–	–
